# Results as given in patent US10844069B2, “Pyrrolotriazine compounds as TAM inhibitors” (Incyte Corporation, priority 2016, dated 2020).
# Columns and labels:
# Tyro3 = Tyro3 (Homo sapiens (Human), UniProt Q06418); experiment: TAM Enzymatic Assay (HTRF), Tyro3; format: biochemical
# Description: (§1) The kinase assay buffer contained 50 mM HEPES, pH7.5, 10 mM MgCl2, 1 mM EGTA, 0.01% NP-40 and 2 mM DTT. 0.1 ul test compounds dissolved in DMSO were transferred from compound plates to white 384-well assay plates (Greiner […] plates). […] 4 ul enzyme solution (or assay buffer for the enzyme blank) was added to the appropriate wells in each plate, and then 4 ul/well substrate solution was added to initiate the reaction. The plate was protected from light and incubated at room temperature for 60 min. […] The plate was incubated for 1 h at room temperature, and HTRF (homogenous time resolved fluorescence) signal was measured on a PHERAstar FS plate reader (BMG labtech). Percentage of inhibition was calculated for each concentration and IC50 value was generated from curve fitting with GraphPad Prism software.
# Axl = Axl (Homo sapiens (Human), UniProt P30530); experiment: TAM Enzymatic Assay (HTRF), phosphor-Axl; format: biochemical
# Axl, sequence (P30530 26-894): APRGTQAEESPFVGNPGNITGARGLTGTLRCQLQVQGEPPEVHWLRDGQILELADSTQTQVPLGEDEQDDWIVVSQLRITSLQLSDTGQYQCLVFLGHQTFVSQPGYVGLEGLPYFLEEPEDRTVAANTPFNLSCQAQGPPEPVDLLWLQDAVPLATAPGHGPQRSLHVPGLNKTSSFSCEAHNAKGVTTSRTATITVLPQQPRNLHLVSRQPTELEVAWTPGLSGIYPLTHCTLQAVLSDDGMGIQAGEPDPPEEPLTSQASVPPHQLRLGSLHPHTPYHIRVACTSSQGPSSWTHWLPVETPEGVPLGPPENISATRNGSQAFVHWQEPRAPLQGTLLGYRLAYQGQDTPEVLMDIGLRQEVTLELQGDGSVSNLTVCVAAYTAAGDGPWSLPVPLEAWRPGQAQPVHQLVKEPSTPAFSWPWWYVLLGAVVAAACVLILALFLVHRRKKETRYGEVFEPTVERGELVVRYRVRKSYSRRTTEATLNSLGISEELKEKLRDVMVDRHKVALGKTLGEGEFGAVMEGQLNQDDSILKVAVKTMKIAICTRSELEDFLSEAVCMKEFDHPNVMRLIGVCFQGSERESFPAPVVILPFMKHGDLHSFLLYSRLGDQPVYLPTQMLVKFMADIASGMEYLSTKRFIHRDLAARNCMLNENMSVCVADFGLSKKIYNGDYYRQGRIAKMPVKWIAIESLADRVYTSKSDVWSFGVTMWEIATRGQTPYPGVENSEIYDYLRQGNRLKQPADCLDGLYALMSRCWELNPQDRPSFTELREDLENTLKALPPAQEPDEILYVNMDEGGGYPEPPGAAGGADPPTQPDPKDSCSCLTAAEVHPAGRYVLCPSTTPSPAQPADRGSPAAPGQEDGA
# Description: Autophosphorylation of Axl was carried out by incubating the recombinant Axl protein (Life Technologies, PV4275) in buffer containing 50 mM Tris, pH7.5, 0.2 mg/ml Axl, 5 mM ATP, 20 mM MgCl2 and 2 mM DTT at room temperature for 1 hour.
# as §1
# Tyro3, sequence (Q06418 41-890): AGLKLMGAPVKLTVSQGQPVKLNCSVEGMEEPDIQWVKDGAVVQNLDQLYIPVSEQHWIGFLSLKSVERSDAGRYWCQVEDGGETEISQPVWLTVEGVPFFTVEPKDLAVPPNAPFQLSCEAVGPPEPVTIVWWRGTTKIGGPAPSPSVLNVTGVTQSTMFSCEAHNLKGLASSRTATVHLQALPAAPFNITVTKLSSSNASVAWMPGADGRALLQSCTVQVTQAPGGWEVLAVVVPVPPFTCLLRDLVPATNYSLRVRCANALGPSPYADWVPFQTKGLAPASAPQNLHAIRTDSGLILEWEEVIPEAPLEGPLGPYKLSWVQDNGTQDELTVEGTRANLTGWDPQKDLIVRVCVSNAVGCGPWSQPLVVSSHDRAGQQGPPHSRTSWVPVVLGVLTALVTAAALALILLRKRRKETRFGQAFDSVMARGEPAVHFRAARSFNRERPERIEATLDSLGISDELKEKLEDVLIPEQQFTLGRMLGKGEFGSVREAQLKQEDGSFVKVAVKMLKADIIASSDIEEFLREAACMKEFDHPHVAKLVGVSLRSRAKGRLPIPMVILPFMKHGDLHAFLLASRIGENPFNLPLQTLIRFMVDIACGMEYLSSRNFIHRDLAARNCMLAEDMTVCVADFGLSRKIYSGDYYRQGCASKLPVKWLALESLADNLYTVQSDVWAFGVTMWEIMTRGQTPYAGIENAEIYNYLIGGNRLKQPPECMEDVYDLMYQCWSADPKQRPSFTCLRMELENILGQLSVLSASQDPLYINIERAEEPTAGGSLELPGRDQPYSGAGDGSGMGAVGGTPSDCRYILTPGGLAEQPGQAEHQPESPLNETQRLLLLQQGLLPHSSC
smiles,measurement,setting,value
"Cc1cn(C)nc1-n1c(=O)c(C(=O)Nc2ccc(-c3cc(C4CCN(C(=O)C(C)C)CC4)n4ncnc(N)c34)cc2)cn(C(C)C)c1=O [Example 138, N-(4-(4-Amino-7-(1-isobutyrylpiperidin-4-yl)pyrrolo[2,1-f][1,2,4]triazin-5-yl)phenyl)-3-(1,4-dimethyl-1H-pyrazol-3-yl)-1-isopropyl-2,4-dioxo-1,2,3,4-tetrahydropyrimidine-5-carboxamide]",IC50,Tyro3,> 100 nM
same,IC50,Axl,< 5 nM
